Among the data in PubChem BioAssay AID2060497 (Molecular Pharmacology Branch, DTP, NCI, 2025) are viability, T/C and IC50 values, retold here.

For orientation: viability, T/C means the result in the treated group divided by that in the control group, in per cent. Broadly, the IC50 is the concentration that inhibits the measured activity by half.

Several values for one entry are separate records, joined by “and”; a condition that tells them apart may be missing. Equal entries are not always repeated.

The experiment has as its system 317291-083-R-J1-PDC complex spheroids, viability. Put plainly: Anticancer human tumor 317291-083-R-J1-PDC patient-derived soft tissue sarcoma cell line growth inhibition [GQUAD]. Conditions: for viability, T/C: stronger effect = lower value. From the text: DNA G-quadruplex Stabilizer Agents in Combinations in Complex Spheroids
A high-throughput screen of multi-cell type tumor spheroids was designed to identify active combinations of DNA G-quadruplex stabilizer agents and targeted small molecules. Complex spheroids include a stromal component modeled by human endothelial cells (HUVEC) and fibroblasts modeled by human mesenchymal stem cells (MSCs). The concentration ranges selected for each drug and investigational agent were based upon clinically achievable concentrations if the clinical Cmax of the agent was known.
Compounds. The drugs and investigational agents: pidnarulex (CX-5461; NSC782164), APTO-253 (NSC789042), BRACO-19 (NSC847499), peposertib (NSC802822), ceralasertib (NSC780249), elimusertib (NSC800525), camonsertib (NSC841442), AZD-1390 (NSC803789), olaparib (NSC753686), talazoparib (NSC767125), ART-558 (NSC835418), sotorasib (NSC818433), MRTX-1133 (NSC836407), SN-38 (NSC673596), topotecan (NSC609699), etoposide (NSC141540), doxorubicin (NSC123127), gemcitabine (NSC613327), 5-fluorouracil (NSC19893), paclitaxel (NSC125973), vemurafenib (NSC761431), panobinostat (NSC761190), R-306465 (JNJ-16241199; NSC773264), adavosertib (NSC754352), TP-3654 (NSC805149), carboplatin (NSC241240), KSQ-4279 (NSC840948), and staurosporine (NSC755774) were obtained from the National Cancer Institute (NCI) Developmental Therapeutics Program Chemical Repository (34). The FDA-approved anticancer drug set is available from the NCI Developmental Therapeutics Program. […] The stock solutions were prepared in dimethyl sulfoxide (DMSO, Sigma-Aldrich, St. Louis, MO, cat. D2650) at 800-fold the tested concentration and stored at -70 degrees C prior to their use. All drugs and investigational agents were tested over a range starting from a high concentration at or near the clinical Cmax and decreasing in half-log increments. If the clinical Cmax for an agent had not been determined, the highest concentration tested was 10 microM.
2.3 Cell Culture. All cells were maintained in an incubator at 37 degrees C and 5% CO2 with 95% humidity. The PDC lines were cultured according to standard operating procedures established by the NCI PDMR. All PDCs were thawed and cultured in Matrigel-coated flasks prepared with a working solution of 1X Ham's F-12 nutrient mix, without supplementation (Invitrogen, cat. 11765054), 100 U/mL penicillin-streptomycin (Invitrogen, cat. 15140122), and 2.5% Matrigel (Corning Inc., cat. 354248) for the first three passages. The 857933-349-R-J2-PDC line was cultured in 6C/Colon 1B media, which includes advanced DMEM/F-12 (Thermo Fisher Scientific, cat. 12634028), 10 mM HEPES (Thermo Fisher Scientific, cat. 15630080), 1X GlutaMAX supplement (Thermo Fisher Scientific, cat. 35050061), 0.1 mg/mL primocin (InvivoGen, cat. ant-pm-2), 10% defined fetal bovine serum, heat inactivated (HyClone Laboratories Inc., cat. SH30070.03HI), 50% L-WRN conditioned media (ATCC, cat. CRL-3276), 1.25 mM N-Acetyl-L-cysteine (Sigma-Aldrich, cat. A9165), 10 mM nicotinamide (Sigma-Aldrich, cat. N0636), 1X B-27 supplement (Thermo Fisher Scientific, cat. 17504044), 1X N-2 supplement (Thermo Fisher Scientific, cat. 17502048), 10 microM Y-27632 dihydrochloride (Tocris Bioscience, cat. 1254), and 50 ng/mL human EGF recombinant protein (Thermo Fisher Scientific, cat. PHG0311). The 485176-168-R4-J1-PDC line was cultured in Panc media, which includes all 6C/Colon 1B media components plus 100 ng/mL human FGF-10 (Thermo Fisher Scientific, cat. 100-26), 500 nM SB-431542 (Selleckchem, cat. S1067), and gastrin (Tocris, cat. 3006).
[…]
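Note: spheroids exposed to compounds for one week before readout.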
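Throughout, for viability, T/C: percent viability relative to DMSO vehicle wells taken as 100%.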

As for `COc1cccc2c1C(=O)c1c(O)c3c(c(O)c1C2=O)CC(O)(C(=O)CO)CC3OC1CC(N)C(O)C(C)O1` (stereo not drawn), the viability, T/C is 77.5% and 82.5% and 86.8% (compound 0.0316 µM); 35% and 28.7% and 27.3% (compound 0.1 µM); 20% and 26.3% and 22.3% (compound 0.316 µM); 8.85% and 15.2% and 15.3% (compound 1 µM); 3.09% and 0.8% and 0.76% (compound 3.16 µM); 4.03% and 0.72% and 2.93% (compound 10 µM). Moreover, the IC50 (curve of compound) was 68.4 nM and 71.5 nM and 69.3 nM.

For `C=CCn1c(=O)c2cnc(Nc3ccc(N4CCN(C)CC4)cc3)nc2n1-c1cccc(C(C)(C)O)n1`, the viability, T/C is, setting by setting: (compound 0.0316 µM) 76.4% and 96.2% and 111%; (compound 0.1 µM) 59.4% and 51.4% and 83.7%; (compound 0.316 µM) 26.6% (2×) and 41.3%; (compound 1 µM) 17.6% and 13.5% and 23.8%; (compound 3.16 µM) 8.54% and 7.89% and 17.9%; (compound 10 µM) 9.53% and 9.94% and 16.1%. In addition, the IC50 (curve of compound) was 138 nM and 108 nM and 253 nM.

Take `CCc1c2c(nc3ccc(O)cc13)-c1cc3c(c(=O)n1C2)COC(=O)[C@]3(O)CC`: the viability, T/C was 67.6% and 68.7% and 66.8% (compound 0.000999 µM); 24.9% and 26.7% and 19.9% (compound 0.00316 µM); 13% and 18.2% and 10.6% (compound 0.00999 µM); 12.7% and 11.9% and 9.88% (compound 0.0316 µM); 8.64% and 6.96% and 7.26% (compound 0.0999 µM); 4.6% and 5.68% and 4.03% (compound 0.316 µM). Besides, the IC50 (curve of compound) is 1.61 nM and 1.72 nM and 1.51 nM.

Take `Cc1cccc(N(C)C(=O)C2C(O)CCN2c2nc(C)cc(C(F)(F)F)c2C#N)c1` (stereo not drawn) + CN(C)c1ccc(Nc2c3ccc(NC(=O)CCN4CCCC4)cc3nc3cc(NC(=O)CCN4CCCC4)ccc23)cc1: the IC50 runs as follows: (curve of first compound, second compound 0.0316 µM) greater than 10000 nM; (curve of first compound, second compound 0.1 µM) greater than 10000 nM; (curve of first compound, second compound 0.316 µM) greater than 10000 nM; (curve of first compound, second compound 1 µM) 548 nM; (curve of first compound, second compound 3.16 µM) less than 31.6 nM; (curve of first compound, second compound 10 µM) less than 31.6 nM. Also, the viability, T/C runs as follows: (second compound 0.0316 µM, first compound 0.0316 µM) 101%; (second compound 0.0316 µM, first compound 0.1 µM) 107%; (second compound 0.0316 µM, first compound 0.316 µM) 93.1%; (second compound 0.0316 µM, first compound 1 µM) 91.9%; (second compound 0.0316 µM, first compound 3.16 µM) 85.5%; (second compound 0.0316 µM, first compound 10 µM) 78.1%. Further, the viability, T/C reads like this: (second compound 0.1 µM, first compound 0.0316 µM) 107%; (second compound 0.1 µM, first compound 0.1 µM) 99.2%; (second compound 0.1 µM, first compound 0.316 µM) 116%; (second compound 0.1 µM, first compound 1 µM) 84.8%; (second compound 0.1 µM, first compound 3.16 µM) 75.9%; (second compound 0.1 µM, first compound 10 µM) 83.9%. Besides, the viability, T/C (second compound 0.316 µM, first compound 0.0316 µM) was 103%; the viability, T/C (second compound 0.316 µM, first compound 0.1 µM) is 93.3%; the viability, T/C (second compound 0.316 µM, first compound 0.316 µM) is 79.9%; the viability, T/C (second compound 0.316 µM, first compound 1 µM) is 62.9%; the viability, T/C (second compound 0.316 µM, first compound 3.16 µM) was 79.8%; the viability, T/C (second compound 0.316 µM, first compound 10 µM) was 46.5%. Moreover, the viability, T/C (second compound 1 µM, first compound 0.0316 µM) was 68.3%; the viability, T/C (second compound 1 µM, first compound 0.1 µM) was 51.1%; the viability, T/C (second compound 1 µM, first compound 0.316 µM) is 57.4%; the viability, T/C (second compound 1 µM, first compound 1 µM) was 45.1%; the viability, T/C (second compound 1 µM, first compound 3.16 µM) was 42.6%; the viability, T/C (second compound 1 µM, first compound 10 µM) was 30%. Further, the viability, T/C was 29.9% (second compound 3.16 µM, first compound 0.0316 µM); 46.2% (second compound 3.16 µM, first compound 0.1 µM); 21.3% (second compound 3.16 µM, first compound 0.316 µM); 25.1% (second compound 3.16 µM, first compound 1 µM); 17.1% (second compound 3.16 µM, first compound 3.16 µM); 9.2% (second compound 3.16 µM, first compound 10 µM). Also, the viability, T/C reads like this: (second compound 10 µM, first compound 0.0316 µM) 7.38%; (second compound 10 µM, first compound 0.1 µM) 11.6%; (second compound 10 µM, first compound 0.316 µM) 10.1%; (second compound 10 µM, first compound 1 µM) 3.67%; (second compound 10 µM, first compound 3.16 µM) 3.05%; (second compound 10 µM, first compound 10 µM) 1.88%.
